The results in this text go back to patent US20140030808A1, “Method for Cellular RNA Expression” (BIONTECH AG, priority 2010, published 2014).

In this experiment the test system is Primary human foreskin fibroblasts (BJ, CCD1079Sk, HFF). The experiment is classed as cell-based. To be noted: 2 μM; for luciferase expression after transient treatment: BJ and CCD1079SK.

Like-named read-outs stand apart in the source and are kept apart here.

`Nc1ncc2[nH]cnc2n1` [2-aminopurine]: the “luciferase expression after transient treatment” value is “did not results in a significant increase of luciferase expression” (7 h incubation period), “rapidly reversed after removal of the inhibitors” (24 h treatment) and “less efficient than a permanent treatment” (48 h treatment). Further, for the setting “permanent inhibition”, the “duration of high luciferase expression levels” value turned out to be 5 days.
